Test results from article PMC7918733, “Biological Profiling of Semisynthetic C19-Functionalized Ferruginol and Sugiol Analogues” (Antibiotics, 2021).
Where two headings read alike, the source gives them in different places.

Assays:
[1] = Cytotoxicity assay on J774 macrophages; details: mouse, Macrophages J774 CC50, 50% reduction of cell viability
Method: (§3) The compounds were additionally studied in a panel of mammalian cell lines to determine cytotoxicity.
(§4) The parasites, culture procedure and the activity of functionalized abietane analogs on Leishmania promastigotes were performed according to the method previously reported by us [28], while the intracellular amastigote assay was performed on L. amazonensis and L. infantum according to the fluorometric test [29]. The J774 cell culture and the cytotoxicity assay was carried out according to our previously described method [30].

P. falciparum 3D7 strain = assay: Antiplasmodial DNA stain-based growth assay; type: cell-based; details: Plasmodium falciparum, 3D7; chloroquine-sensitive strain; 72 h incubation; read-out: P. falciparum 3D7 EC50
Method: (§1) Assays were performed by using previously described DNA stain-based assay and methods, including cytotoxicity assays.

P. falciparum K1 strain = assay: Antiplasmodial DNA stain-based growth assay; type: cell-based; details: Plasmodium falciparum, K1; chloroquine-resistant strain; 72 h incubation; read-out: P. falciparum K1 EC50
Method: as §1

HeLa (Cervix) [2] = assay: Antiproliferative SRB assay; type: cell-based; details: Homo sapiens, mean ± SD of at least two experiments
Method: (§2) Cells, cultures and the activity test of abietane analogs followed reported methods. The SRB assay was performed as previously described, and the antiproliferative activity was given as GI50 values, which were calculated according to NCI formulas.

HBL-100 (Breast) [3] = assay: Antiproliferative SRB assay; type: cell-based; details: Homo sapiens, mean ± SD of at least two experiments
Method: as §2

T-47D (Breast) [4] = assay: Antiproliferative SRB assay; type: cell-based; details: Homo sapiens, T47D, mean ± SD of at least two experiments
Method: as §2

[5] = system: L. donovani promastigotes; assay: Antileishmanial in vitro promastigote assay; details: Leishmania donovani, read-out: L. donovani IC50 ± SD
Method: as §3, §4

A549 (Lung) [6] = assay: Antiproliferative SRB assay; type: cell-based, human; details: Homo sapiens, A549, mean ± SD of at least two experiments
Method: as §2

SW1573 (Lung) [7] = assay: Antiproliferative SRB assay; type: cell-based, human; details: Homo sapiens, SW1573, mean ± SD of at least two experiments
Method: as §2

WiDr (Colon) [8] = assay: Antiproliferative SRB assay; type: cell-based, human; details: Homo sapiens, WiDr, mean ± SD of at least two experiments
Method: as §2

[9] = system: L. infantum promastigotes; assay: Antileishmanial in vitro promastigote assay; details: Leishmania infantum, read-out: L. infantum IC50 ± SD
Method: as §3, §4

HEK293 = assay: Cytotoxicity on mammalian cell lines; type: cell-based; details: Homo sapiens, HEK293; read-out: HEK293 EC50
Method: as §1

RAJI = assay: Cytotoxicity on mammalian cell lines; type: cell-based; details: Homo sapiens, read-out: RAJI EC50
Method: as §1

HepG2 = assay: Cytotoxicity on mammalian cell lines; type: cell-based; details: Homo sapiens, HepG2; read-out: HepG2 EC50
Method: as §1

BJ = assay: Cytotoxicity on mammalian cell lines; type: cell-based; details: Homo sapiens, read-out: BJ EC50
Method: as §1

[10] = system: L. amazonensis promastigotes; assay: Antileishmanial in vitro promastigote assay; details: Leishmania amazonensis, read-out: L. amazonensis IC50 ± SD
Method: as §3, §4

[11] = system: L. guyanensis promastigotes; assay: Antileishmanial in vitro promastigote assay; details: Leishmania guyanensis, read-out: L. guyanensis IC50 ± SD
Method: as §3, §4

[12] = system: L. amazonensis amastigotes; assay: Intracellular amastigote assay (fluorometric test); type: cell-based; details: Leishmania amazonensis, read-out: L. amazonensis IC50 ± SD
L. infantum amastigotes [13] = assay: Intracellular amastigote assay (fluorometric test); type: cell-based; details: Leishmania infantum, read-out: L. infantum IC50 ± SD
[14] = system: L. amazonensis amastigotes; set-up: method as in PMID 30840453; details: C18-congener, read-out: L. amazonensis IC50 ± SD; cited from earlier work
SW1573 (Lung) [15] = details: C18-congeners; cited from earlier work
[16] = target: T1, GABAA receptor subtype (α1β2γ2S) (Homo sapiens, UniProt P14867+P18507+P47870); set-up: expressed in transfected cells; host or cells: Xenopus laevis oocytes; details: C18-congeners, cited from earlier work
T1 sequence (P14867 28-456): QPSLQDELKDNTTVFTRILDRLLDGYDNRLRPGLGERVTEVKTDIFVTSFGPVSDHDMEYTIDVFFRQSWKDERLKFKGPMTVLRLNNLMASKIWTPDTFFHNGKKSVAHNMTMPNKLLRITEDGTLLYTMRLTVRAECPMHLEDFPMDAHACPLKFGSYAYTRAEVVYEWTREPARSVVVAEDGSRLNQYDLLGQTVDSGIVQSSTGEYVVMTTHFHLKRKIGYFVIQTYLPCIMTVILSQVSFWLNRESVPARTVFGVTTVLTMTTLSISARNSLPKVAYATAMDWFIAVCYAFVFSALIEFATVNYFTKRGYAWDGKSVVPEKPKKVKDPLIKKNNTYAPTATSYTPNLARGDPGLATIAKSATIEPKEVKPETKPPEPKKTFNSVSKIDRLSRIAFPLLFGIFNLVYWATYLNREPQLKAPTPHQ
T1 sequence (P47870 26-512): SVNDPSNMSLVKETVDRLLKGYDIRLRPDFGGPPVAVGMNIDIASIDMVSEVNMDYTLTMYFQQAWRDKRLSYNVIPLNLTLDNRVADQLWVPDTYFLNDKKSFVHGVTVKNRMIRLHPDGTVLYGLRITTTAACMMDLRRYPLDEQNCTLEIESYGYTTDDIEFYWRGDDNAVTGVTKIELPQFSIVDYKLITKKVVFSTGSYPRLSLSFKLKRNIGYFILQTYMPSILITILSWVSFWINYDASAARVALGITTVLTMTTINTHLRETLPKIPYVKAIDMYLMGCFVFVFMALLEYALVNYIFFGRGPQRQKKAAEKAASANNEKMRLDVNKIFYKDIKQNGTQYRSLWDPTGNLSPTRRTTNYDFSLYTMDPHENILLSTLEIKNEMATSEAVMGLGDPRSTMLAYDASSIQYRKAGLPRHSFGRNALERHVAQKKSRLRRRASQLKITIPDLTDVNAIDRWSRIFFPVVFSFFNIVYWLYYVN
T1 sequence (P18507 40-467 isoform P18507-1 limits assumed): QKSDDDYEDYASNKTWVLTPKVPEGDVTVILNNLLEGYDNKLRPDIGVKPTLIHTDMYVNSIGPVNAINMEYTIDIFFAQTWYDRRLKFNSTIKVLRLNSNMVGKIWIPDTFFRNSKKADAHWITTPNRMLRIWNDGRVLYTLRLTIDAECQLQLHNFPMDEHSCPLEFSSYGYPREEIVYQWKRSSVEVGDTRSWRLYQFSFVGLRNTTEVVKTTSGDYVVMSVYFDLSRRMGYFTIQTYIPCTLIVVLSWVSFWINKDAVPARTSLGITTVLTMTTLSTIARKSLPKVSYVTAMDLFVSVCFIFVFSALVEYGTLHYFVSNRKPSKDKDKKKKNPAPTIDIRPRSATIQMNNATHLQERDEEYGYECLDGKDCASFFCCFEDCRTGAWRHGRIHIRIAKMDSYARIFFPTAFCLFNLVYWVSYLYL

[17] = system: L. donovani promastigotes; details: C18-congeners, read-out: L. donovani IC50 ± SD; cited from earlier work
Macrophages J774 = details: read-out: Macrophages J774 CC50; C18-congeners; cited from earlier work
A549 (Lung) [18] = details: C18-congeners; cited from earlier work
[19] = system: L. amazonensis promastigotes; set-up: method as in PMID 30840453; details: C18-congeners, read-out: L. amazonensis IC50 ± SD; cited from earlier work
HBL-100 (Breast) [20] = details: C18-congeners; cited from earlier work
[21] = system: L. guyanensis promastigotes; set-up: method as in PMID 30840453; details: C18-congeners, read-out: L. guyanensis IC50 ± SD; cited from earlier work
[22] = system: L. infantum promastigotes; set-up: method as in PMID 30840453; details: C18-congeners, read-out: L. infantum IC50 ± SD; cited from earlier work
WiDr (Colon) [23] = details: C18-congeners; cited from earlier work
HeLa (Cervix) [24] = details: C18-congeners; cited from earlier work
T-47D (Breast) [25] = details: C18-congeners; cited from earlier work
L. infantum amastigotes [26] = system: L. infantum amastigotes; set-up: method as in PMID 30840453; details: C18-congener, read-out: L. infantum IC50 ± SD; cited from earlier work
in vitro = details: mouse, Macrophages J774 CC50
Method: as §3, §4

[27] = target: T1, GABAA receptor subtype (α1β2γ2S); assay: Two-microelectrode voltage-clamp in Xenopus laevis oocytes; details: for activation at 10 µM: read-out: IGABA Potentiation of 10 µM (%); for activation at 100 µM: read-out: IGABA Potentiation of 100 µM (%)
Method: All molecules were tested at concentrations of 10, 100 μM and compared with dehydroabietic acid (DHA) (3) as a reference [16].

Compound	CC50 [1]	EC50 (P. falciparum 3D7 strain)	EC50 (P. falciparum K1 strain)	GI50 (HeLa (Cervix) [2])	GI50 (HBL-100 (Breast) [3])	GI50 (T-47D (Breast) [4])	IC50 [5]	GI50 (A549 (Lung) [6])	GI50 (SW1573 (Lung) [7])	GI50 (WiDr (Colon) [8])	IC50 [9]	EC50 (HEK293)	EC50 (RAJI)	EC50 (HepG2)	EC50 (BJ)	IC50 [10]	IC50 [11]	IC50 [12]	IC50 (L. infantum amastigotes [13])	CC50 (in vitro)	further results
COC(=O)[C@@]1(C)CCC[C@]2(C)c3cc(OC(C)=O)c(C(C)C)cc3CC[C@@H]12 [Compound 10]	30.2 ± 2 µM	> 15 µM	3.1 µM	7 ± 1.7 µM	11 ± 2.3 µM	4.2 ± 1.5 µM	3.9 ± 0.1 µM	6.5 ± 2.7 µM	18 ± 3.4 µM	4.5 ± 1.4 µM	3.6 ± 0.6 µM	> 25 µM	> 25 µM	> 25 µM	> 25 µM	7.4 ± 0.6 µM					
COC(=O)[C@@]1(C)CCC[C@]2(C)c3cc(C(C)=O)c(C(C)C)cc3CC[C@@H]12 [Compound 9]	> 200 µM	12.8 µM	12.6 µM	15 ± 4.1 µM	14 ± 2.1 µM	14 ± 1 µM	8.9 ± 2 µM	15 ± 7 µM	25 ± 11 µM	15 ± 2.1 µM	20.3 ± 4.6 µM	> 25 µM	> 25 µM	> 25 µM	> 25 µM	14.1 ± 1.4 µM	18.7 ± 0.8 µM	30.3 ± 1.2 µM	22.7 ± 5.9 µM		
COC(=O)[C@]1(C)CCC[C@]2(C)c3cc(C(C)=O)c(C(C)C)cc3CC[C@@H]12 [Compound 9b]																					IC50 [14]: 31.4 ± 6.2 µM; GI50 (SW1573 (Lung) [15]): 11 ± 4.6 µM; IGABA Potentiation of 10 µM (%) ([16]; 10 µM): 2.7 ± 0.9%; IGABA Potentiation of 100 µM (%) ([16]; 100 µM): −2.9 ± 5.1%; IC50 [17]: 14.8 ± 0.9 µM; CC50 (Macrophages J774): 130 ± 8.9 µM; GI50 (A549 (Lung) [18]): 18 ± 2.3 µM; IC50 [19]: 11.6 ± 0.6 µM; GI50 (HBL-100 (Breast) [20]): 15 ± 1.2 µM; IC50 [21]: 14.2 ± 0.4 µM; IC50 [22]: 2500 ± 600 nM; GI50 (WiDr (Colon) [23]): 17 ± 2.4 µM; GI50 (HeLa (Cervix) [24]): 11 ± 1 µM; GI50 (T-47D (Breast) [25]): 10 ± 1.5 µM; IC50 (L. infantum amastigotes [26]): 37.2 ± 2.4 µM
CC(C)c1cc2c(cc1O)C1(C)CCCC(C)(C(=O)O)C1CC2=O (single isomer, unassigned; (+)) [Compound 8a, (+)-4-epi-liquiditerpenoic acid A]		> 15 µM	> 15 µM	12 ± 3.8 µM	39 ± 14 µM	31 ± 12 µM	84.4 ± 31.6 µM	12 ± 2.9 µM	41 ± 17 µM	33 ± 15 µM	100 ± 20 µM	> 25 µM	> 25 µM	> 25 µM	> 25 µM	94.5 ± 6.5 µM	3 ± 0.9 µM	21.4 ± 2.3 µM	20.1 ± 2 µM	> 200 µM	activation at 10 µM [27]: -8 ± 1%; activation at 100 µM [27]: -8 ± 3%
COC(=O)[C@@]1(C)CCC[C@]2(C)c3cc(O)c(C(C)C)cc3C(=O)C[C@@H]12 [Compound 16]		4.8 µM	3.9 µM	18 ± 1.7 µM	65 ± 4.9 µM	47 ± 25 µM	11.8 ± 0.8 µM	11 ± 6.9 µM	> 100 µM	6.1 ± 4.2 µM	10.1 ± 1.4 µM	> 25 µM	> 25 µM	> 25 µM	> 25 µM	8.5 ± 0.3 µM	5.6 ± 0.6 µM	16.1 ± 2 µM	16.5 ± 4.6 µM	> 200 µM	activation at 10 µM [27]: 5 ± 4%; activation at 100 µM [27]: 104 ± 26%
